In BindingDB's records for PubMed 9223568 (Yamanouchi Pharmaceutical, 1997) one finds Ki data, which are given here for five molecules.

Each structure is given as a SMILES string. Values joined by “and” are separate entries in the source; they are usually repeats but may differ in a detail not shown here. Identical values can stand only once. Numbered stars: 1 amine (or outer) side, 2 acyl side, 3 side chain; on linkers, the order of the positions; unused ones are H or OH. Bridge positions count the residues as written; N and C are the ends. Peptide text beside a SMILES is read from it. X1 = O=C(CC1(S[*:2])CCCCC1)[*:1]

The target of one assay is Vasopressin V2 receptor (Rattus norvegicus, UniProt Q00788).
Chain of Vasopressin V2 receptor (Q00788 whole entry): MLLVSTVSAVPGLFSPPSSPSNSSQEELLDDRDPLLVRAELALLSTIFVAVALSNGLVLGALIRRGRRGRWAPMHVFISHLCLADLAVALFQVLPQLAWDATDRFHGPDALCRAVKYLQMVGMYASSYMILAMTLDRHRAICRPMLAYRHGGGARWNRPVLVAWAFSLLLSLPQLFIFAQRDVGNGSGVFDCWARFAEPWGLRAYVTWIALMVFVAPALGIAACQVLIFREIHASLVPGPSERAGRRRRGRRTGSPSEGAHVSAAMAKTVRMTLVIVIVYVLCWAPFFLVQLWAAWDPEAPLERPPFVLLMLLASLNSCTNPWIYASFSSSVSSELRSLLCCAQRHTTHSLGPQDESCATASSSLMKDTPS
In another assay the target is Vasopressin V1a receptor (Rattus norvegicus, UniProt P30560).
Chain of Vasopressin V1a receptor (P30560 whole entry): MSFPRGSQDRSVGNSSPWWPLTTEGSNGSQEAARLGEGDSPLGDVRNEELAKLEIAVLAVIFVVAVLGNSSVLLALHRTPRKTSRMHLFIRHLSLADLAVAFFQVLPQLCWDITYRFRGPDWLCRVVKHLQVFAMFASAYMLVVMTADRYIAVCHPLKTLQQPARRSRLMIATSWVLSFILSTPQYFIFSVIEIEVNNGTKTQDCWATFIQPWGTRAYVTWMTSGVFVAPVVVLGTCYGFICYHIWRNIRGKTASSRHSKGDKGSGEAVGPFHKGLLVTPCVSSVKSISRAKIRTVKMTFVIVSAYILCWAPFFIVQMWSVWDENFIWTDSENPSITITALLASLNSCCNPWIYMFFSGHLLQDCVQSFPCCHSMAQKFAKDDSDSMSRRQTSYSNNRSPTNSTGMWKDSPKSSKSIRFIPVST
The target of a further assay is T1, Vasopressin V1b receptor (Rattus norvegicus, UniProt P48974).
T1 sequence (P48974 whole entry): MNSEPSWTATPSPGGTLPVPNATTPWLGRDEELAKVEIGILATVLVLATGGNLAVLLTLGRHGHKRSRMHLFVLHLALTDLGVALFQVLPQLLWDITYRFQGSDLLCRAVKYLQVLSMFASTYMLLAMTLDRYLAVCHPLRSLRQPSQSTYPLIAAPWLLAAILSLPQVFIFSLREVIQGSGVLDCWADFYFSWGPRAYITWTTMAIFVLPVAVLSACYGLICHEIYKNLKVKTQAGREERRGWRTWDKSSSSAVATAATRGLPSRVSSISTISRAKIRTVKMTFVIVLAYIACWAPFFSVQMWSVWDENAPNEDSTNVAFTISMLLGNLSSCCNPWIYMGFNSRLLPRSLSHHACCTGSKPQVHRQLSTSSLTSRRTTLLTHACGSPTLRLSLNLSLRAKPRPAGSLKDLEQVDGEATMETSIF

The target in another assay is T2, Oxytocin receptor (Rattus norvegicus, UniProt P70536).
T2 sequence (P70536 whole entry): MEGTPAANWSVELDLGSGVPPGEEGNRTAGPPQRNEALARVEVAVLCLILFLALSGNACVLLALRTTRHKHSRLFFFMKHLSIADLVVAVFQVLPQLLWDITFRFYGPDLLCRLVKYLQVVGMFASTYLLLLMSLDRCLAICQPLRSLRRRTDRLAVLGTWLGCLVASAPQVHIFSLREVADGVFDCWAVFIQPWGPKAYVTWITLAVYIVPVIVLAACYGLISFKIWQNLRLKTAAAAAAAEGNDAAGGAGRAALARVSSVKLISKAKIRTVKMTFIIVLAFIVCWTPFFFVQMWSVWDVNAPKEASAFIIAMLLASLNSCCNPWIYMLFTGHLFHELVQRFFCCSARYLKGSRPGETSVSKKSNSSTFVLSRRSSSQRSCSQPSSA

Take `Cc1nc2c([nH]1)-c1ccccc1N(C(=O)c1ccc(NC(=O)c3ccccc3-c3ccccc3)cc1)CC2` [CONIVAPTAN]: the Ki at Vasopressin V2 receptor is 3.04 nM and 0.38 nM; on Vasopressin V1a receptor, 0.48 nM and 0.24 nM; at Vasopressin V1b receptor, above 10000 nM; at Oxytocin receptor, 44.4 nM.

As to `COc1ccc(C[C@@H]2NC(=O)CC3(CCCCC3)SSC[C@@H](C(=O)N3CCC[C@H]3C(=O)N[C@@H](CCCN=C(N)N)C(=O)NCC(N)=O)NC(=O)[C@H](CC(N)=O)NC(=O)[C@H](CCC(N)=O)NC(=O)[C@H](Cc3ccccc3)NC2=O)cc1` [NSC_105077] (Y(Me)FQNCPRG-NH2; linker N-5 via X1), the Ki on Vasopressin V2 receptor is 39.6 nM and 100 nM; on Vasopressin V1a receptor it was 1.79 nM and 0.33 nM; on Vasopressin V1b receptor, 37.6 nM.

On to `NC(=O)CC[C@@H]1NC(=O)[C@H](Cc2ccccc2)NC(=O)[C@H](Cc2ccc(O)cc2)NC(=O)CCSSC[C@@H](C(=O)N2CCC[C@H]2C(=O)N[C@H](CCCN=C(N)N)C(=O)NCC(N)=O)NC(=O)[C@H](CC(N)=O)NC1=O` [NSC_64759], for which the Ki on Vasopressin V2 receptor is 1.93 nM and 7.94 nM.

For the molecule `CC(=O)NCCCOc1ccc(C(=O)N2CCC(N3C(=O)CCc4ccccc43)CC2)cc1` [N-(3-(4-(4-(2-oxo-3,4-dihydroquinolin-1(2H)-yl)piperidine-1-carbonyl)phenoxy)propyl)acetamide], the Ki on Vasopressin V2 receptor is above 10000 nM; on Vasopressin V1a receptor, 23.5 nM and 14.9 nM; on Vasopressin V1b receptor it was above 10000 nM; on Oxytocin receptor, 333 nM.

Regarding `Cc1ccccc1C(=O)Nc1ccc(C(=O)N2CCCC(N(C)C)c3ccccc32)cc1` (stereo not given), the values for the Ki on Vasopressin V1a receptor, at Vasopressin V1b receptor and on Oxytocin receptor were 232 nM, above 10000 nM and 1550 nM, respectively.
